7 compounds from PubChem BioAssay (NCI) can be followed below.

Test systems include HS 578T breast; MALME-3M melanoma; NCI-H226 lung; NCI-H23 lung; NCI-H460 lung; OVCAR-3 ovarian; OVCAR-5 ovarian; SF-539 CNS; SK-MEL-5 melanoma; SW-620 colon.
Common to all, as to assay: NCI tumour cell line growth inhibition, 48 h

Values joined by “and” are separate entries in the source; they are usually repeats but may differ in a detail not shown here. Equal values may be shown once.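 How tested: cells in 96-well plates exposed to compound for 48 hours at five concentrations. GI50: concentration for 50% inhibition of growth. At the TGI there is no net growth.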

Consider `CN1CCN(c2nc(NCCCCNc3ccnc4cc(Cl)ccc34)c3ccccc3n2)CC1`, for which the GI50 was 5.48 µM with HS 578T breast; 1.93 µM with MALME-3M melanoma; 20.7 µM in the test with NCI-H226 lung; 11.7 µM in the test with NCI-H23 lung; 5.14 µM in the test on NCI-H460 lung; 5.36 µM in the test on OVCAR-3 ovarian. Besides, the GI50 with OVCAR-5 ovarian is 2.98 µM; in the test with SF-539 CNS, 1.62 µM; in the test on SK-MEL-5 melanoma it was 1.78 µM; with SW-620 colon it was 4.42 µM. In addition, the TGI in the test on HS 578T breast came to 26 µM; in the test on MALME-3M melanoma, 3.61 µM; with NCI-H226 lung it was 45.8 µM; in the test with NCI-H23 lung it was 29.7 µM; with NCI-H460 lung, 18.3 µM; in the test with OVCAR-3 ovarian, 22.6 µM. Moreover, the TGI is 15.8 µM in the test with OVCAR-5 ovarian, 3.25 µM in the test with SF-539 CNS, 3.19 µM with SK-MEL-5 melanoma and 18.2 µM in the test with SW-620 colon.
Consider `COc1ccn2c(C(C)=O)cc(C(=O)c3ccc4c(c3)Sc3ccccc3N4)c2c1`, for which the GI50 is 0.182 µM in the test on HS 578T breast; more than 27.8 µM in the test with MALME-3M melanoma; 0.286 µM in the test on NCI-H226 lung; 0.136 µM in the test on NCI-H23 lung; 0.113 µM with NCI-H460 lung; 0.0801 µM in the test with OVCAR-3 ovarian. The GI50 with OVCAR-5 ovarian was 0.229 µM; in the test on SF-539 CNS, 0.0654 µM; in the test with SK-MEL-5 melanoma, 0.104 µM; in the test on SW-620 colon, 0.148 µM. The TGI with HS 578T breast was more than 100 µM; with MALME-3M melanoma it was more than 100 µM; in the test with NCI-H226 lung it was more than 100 µM; in the test with NCI-H23 lung, more than 100 µM; in the test with NCI-H460 lung, more than 38 µM; in the test with OVCAR-3 ovarian it was 0.206 µM. Also, the TGI was more than 100 µM in the test with OVCAR-5 ovarian, 0.206 µM with SF-539 CNS, 0.449 µM in the test on SK-MEL-5 melanoma and more than 100 µM in the test with SW-620 colon.
Consider `O=C1/C(=C/c2ccccc2F)CNC/C1=C\c1ccccc1F`, for which the GI50 with HS 578T breast is 0.533 µM and 4.11 µM; in the test with MALME-3M melanoma, 2.26 µM and 1.83 µM; in the test on NCI-H226 lung, 3.15 µM and 1.46 µM; in the test with NCI-H23 lung, 0.693 µM and 0.838 µM; in the test with NCI-H460 lung, 0.693 µM and 0.458 µM; in the test with OVCAR-3 ovarian, 0.89 µM and 0.309 µM. Besides, the GI50 is 0.935 µM and 1.91 µM in the test on OVCAR-5 ovarian; 0.269 µM and 0.87 µM with SF-539 CNS; 1.22 µM and 1.59 µM in the test with SK-MEL-5 melanoma; 0.236 µM and 0.245 µM with SW-620 colon. The TGI in the test on MALME-3M melanoma was 6.38 µM and 4.51 µM; in the test with NCI-H226 lung, 10.7 µM and 3.91 µM; in the test with NCI-H23 lung it was 1.81 µM and 3.27 µM; in the test on NCI-H460 lung it was 3.29 µM and 3.3 µM; with OVCAR-3 ovarian it was 3.22 µM and 0.805 µM; in the test on OVCAR-5 ovarian it was 2.34 µM and 3.96 µM. Further, the TGI with SF-539 CNS was 0.828 µM and 2.99 µM; in the test on SK-MEL-5 melanoma, 2.85 µM and 3.05 µM; in the test on SW-620 colon, 3.49 µM and 0.647 µM.
Consider `COc1cc2c3c(n(CCCNCC(OC)OC)c(=O)c2cc1OC)-c1cc2c(cc1C3=O)OCO2`, for which the GI50 in the test with HS 578T breast was 10.4 µM; with MALME-3M melanoma, 21 µM; with NCI-H226 lung, 6.63 µM; with NCI-H23 lung, 1.84 µM; in the test with NCI-H460 lung it was 0.0972 µM; in the test with OVCAR-3 ovarian it was 3.81 µM. The results for the GI50 in the test with OVCAR-5 ovarian, with SF-539 CNS and with SW-620 colon were 16.9 µM, 2.42 µM and 2.05 µM, respectively. Besides, the TGI was more than 29.3 µM in the test with HS 578T breast; 47.6 µM with MALME-3M melanoma; 42.5 µM with NCI-H226 lung; 29.9 µM in the test on NCI-H23 lung; 20.5 µM in the test with NCI-H460 lung; 32.7 µM with OVCAR-3 ovarian. Also, the values for the TGI with OVCAR-5 ovarian, with SF-539 CNS and in the test with SW-620 colon were 37.8 µM, 24.9 µM and 24.2 µM, respectively.
Take `COC(=O)c1cc(-c2cc(OC)c(OC)c(OC)c2)[nH]c1N/N=C/c1c(Cl)cccc1Cl`: the GI50 was 1.15 µM in the test with HS 578T breast; 1.47 µM in the test on MALME-3M melanoma; 9.54 µM with NCI-H226 lung; 1.25 µM in the test on NCI-H23 lung; 1.48 µM in the test on NCI-H460 lung; 0.57 µM in the test with OVCAR-3 ovarian. The GI50 with OVCAR-5 ovarian was 2.25 µM; in the test with SF-539 CNS, 1.35 µM; in the test with SK-MEL-5 melanoma, 3.17 µM; in the test with SW-620 colon it was 1.51 µM. Moreover, the TGI in the test with HS 578T breast is more than 27 µM; in the test with MALME-3M melanoma, 8.2 µM; with NCI-H226 lung, 40.3 µM; in the test on NCI-H23 lung it was 7.78 µM; with NCI-H460 lung, 18.3 µM; with OVCAR-3 ovarian, 3.02 µM. Moreover, the TGI in the test with OVCAR-5 ovarian is 13.4 µM; in the test with SF-539 CNS it was 5.47 µM; with SK-MEL-5 melanoma it was 17.6 µM; with SW-620 colon, more than 33.8 µM.
Consider `CC1=CCC(OC(=O)C(C)(C)CCC(O)(C(=O)OC2(C(C)C)CCC3(C)OC3C2)C(C)C)(C(C)C)CC1` (stereo not given), for which the GI50 in the test with HS 578T breast is 0.735 µM; with MALME-3M melanoma, 0.733 µM; in the test on NCI-H226 lung, 0.693 µM; with NCI-H23 lung, 0.113 µM; with NCI-H460 lung it was 0.57 µM; in the test with OVCAR-3 ovarian it was 0.0833 µM. The GI50 in the test on OVCAR-5 ovarian was 0.695 µM; in the test on SF-539 CNS, 0.707 µM; with SK-MEL-5 melanoma, 0.197 µM; with SW-620 colon, 0.34 µM. Also, the TGI in the test with HS 578T breast is 3.57 µM; in the test with MALME-3M melanoma it was 1.48 µM; with NCI-H226 lung it was 1.85 µM; in the test with NCI-H23 lung, 0.301 µM; with NCI-H460 lung it was 1.39 µM; in the test with OVCAR-3 ovarian, 0.166 µM. The TGI was 1.39 µM in the test on OVCAR-5 ovarian, 1.36 µM in the test on SF-539 CNS, 0.725 µM in the test on SK-MEL-5 melanoma and 1.13 µM in the test on SW-620 colon.
Turning to `CCN(CCNc1ccc(C)c2sc3cc(Cl)ccc3c(=O)c12)CC(C)O` (stereo not given), the GI50 was 2.23 µM in the test on HS 578T breast; 1.36 µM with MALME-3M melanoma; 2.18 µM in the test with NCI-H226 lung; 2.53 µM in the test with NCI-H23 lung; 1.78 µM in the test with NCI-H460 lung; 3.62 µM in the test on OVCAR-3 ovarian. Also, the GI50 with SF-539 CNS is 1.59 µM; in the test with SK-MEL-5 melanoma, 1.62 µM; with SW-620 colon, 1.8 µM. Further, the TGI was determined as 4.35 µM in the test with HS 578T breast; 2.77 µM in the test with MALME-3M melanoma; 4.72 µM with NCI-H226 lung; 4.77 µM in the test on NCI-H23 lung; 3.34 µM in the test on NCI-H460 lung; 14.3 µM in the test on OVCAR-3 ovarian. Also, the TGI in the test with SF-539 CNS is 2.95 µM; in the test with SK-MEL-5 melanoma, 2.98 µM; with SW-620 colon, 3.51 µM.
